Literature values as cited in patent US12667579B2, “Pharmaceutical compositions for clinical nutrition” (BAXTER INTERNATIONAL INC., priority 2021, dated 2026).

Assays:
[1] = ingested orally or enterally
[2] = tested on: serum alkaline phosphatases
[3] = compounded with 96 mEq/L of calcium chloride

[Al] [aluminum]
share of ingested aluminum reaching the blood stream [1]: < 1%

sodium glycerophosphate [SGP]
amount hydrolyzed each day ([2]; individuals with normal serum alkaline phosphatase, hydrolysis completely in plasma): 12 to 15 mmol | plasma concentration at which maximum hydrolysis occurs ([2]; plasma, hydrolysis to inorganic phosphate and glycerol): > 700 µM | solubility in acetone (acetone): essentially insoluble | solubility in ethanol (ethanol): essentially insoluble | solubility in water (water): freely soluble | concentration up to which SGP is stable in compounded solutions [3]: up to 120 mmol/L
